Test results taken from US7932270B2 (Cytokinetics, Inc., priority 2006, dated 2011).

molecular target: T1, chicken gizzard smooth muscle myosin subfragment-1 chemically crosslinked to cardiac or skeletal actin (Gallus gallus, UniProt P10587); assay: Smooth muscle myosin ATPase dose response assay (pyruvate kinase/horseradish peroxidase/pyruvate oxidase-coupled, amplex red fluorescence); format: biochemical; details: read-out: IC50 Arithmetic Mean
T1 construct: chicken gizzard smooth muscle myosin subfragment-1; from tissue; host or cells: chicken gizzard
T1 sequence (P02607 2-151): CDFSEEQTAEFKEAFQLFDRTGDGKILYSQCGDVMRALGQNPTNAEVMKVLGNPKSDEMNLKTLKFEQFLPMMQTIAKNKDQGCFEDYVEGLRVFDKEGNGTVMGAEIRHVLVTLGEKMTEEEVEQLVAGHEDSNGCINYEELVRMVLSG
T1 sequence (P10587 84-789): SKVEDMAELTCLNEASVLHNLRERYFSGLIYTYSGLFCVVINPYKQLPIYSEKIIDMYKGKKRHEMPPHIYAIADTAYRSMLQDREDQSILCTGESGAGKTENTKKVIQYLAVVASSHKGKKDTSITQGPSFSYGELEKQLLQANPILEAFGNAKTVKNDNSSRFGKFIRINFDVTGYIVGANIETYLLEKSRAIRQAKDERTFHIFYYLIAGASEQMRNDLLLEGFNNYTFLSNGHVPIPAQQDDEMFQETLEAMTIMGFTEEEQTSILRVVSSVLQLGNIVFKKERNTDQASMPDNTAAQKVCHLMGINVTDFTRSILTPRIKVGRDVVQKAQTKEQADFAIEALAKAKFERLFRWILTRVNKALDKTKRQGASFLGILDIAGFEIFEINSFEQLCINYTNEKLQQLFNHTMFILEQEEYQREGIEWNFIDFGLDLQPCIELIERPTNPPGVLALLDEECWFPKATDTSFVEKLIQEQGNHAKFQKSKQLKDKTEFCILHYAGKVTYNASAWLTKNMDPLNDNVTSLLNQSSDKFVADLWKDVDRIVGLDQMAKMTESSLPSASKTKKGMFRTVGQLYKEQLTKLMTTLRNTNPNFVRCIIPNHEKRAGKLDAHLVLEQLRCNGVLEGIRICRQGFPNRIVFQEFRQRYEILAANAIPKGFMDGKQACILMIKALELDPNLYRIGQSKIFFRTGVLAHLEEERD
Method in brief: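 ATPase monitored by amplex red fluorescence (ex 480/em 615 nm) via pyruvate oxidase/HRP coupling, pH 7.00, ATP 0.15 mM. Enzyme: smooth muscle S1-actin crosslinked conjugate, amount set empirically by titration. Dose-response fitted with 4-parameter Hill equation for IC50.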

IC50	Compound
0.151 µM	O=C(NCc1cccnc1)c1ccc(-c2ccccc2)nc1NCCc1ccccc1 [{6-phenyl-2-[(2-phenylethyl)amino](3-pyridyl)}-N-(3-pyridylmethyl)carboxamide]
0.294 µM	O=C(NCc1cccnc1)c1ccc(-c2ccccc2)nc1NCCc1ccco1 [{2-[(2-(2-furyl)ethyl)amino]-6-phenyl(3-pyridyl)}-N-(3-pyridylmethyl)carboxamide]
0.178 µM	N#Cc1ccccc1-c1ccc(C(=O)NC[C@H]2CCCCN2S(=O)(=O)CCN)c(NCCc2cccc(F)c2)n1 [N-({(2R)-1-[(2-aminoethyl)sulfonyl](2-piperidyl)}methyl)(6-(2-cyanophenyl)-2-{[2-(3-fluorophenyl)ethyl]amino}(3-pyridyl))carboxamide]
12.2 µM	CN(C)CCCNC(=O)CNC(=O)c1ccc(-c2ccccc2C#N)nc1NCCc1cccc(F)c1 [N-[3-(dimethylamino)propyl]-2-[(6-(2-cyanophenyl)-2-{[2-(3-fluorophenyl)ethyl]amino}(3-pyridyl))carbonylamino]acetamide]
0.099 µM	N#Cc1ccccc1-c1ccc(C(=O)NCCC(N)=O)c(NCCc2cccc(F)c2)n1 [N-(2-carbamoylethyl)(6-(2-cyanophenyl)-2-{[2-(3-fluorophenyl)ethyl]amino}(3-pyridyl))carboxamide]
0.577 µM	Cc1cc(C(=O)NC[C@H]2CCC(=O)N2CCCN)c(NCCc2cccc(F)c2)nc1-c1cnn(C)c1 [N-{[(2R)-1-(3-aminopropyl)-5-oxopyrrolidin-2-yl]methyl}(2-{[2-(3-fluorophenyl)ethyl]amino}-5-methyl-6-(1-methylpyrazol-4-yl)(3-pyridyl))carboxamide]
1.5 µM	N#Cc1ccccc1-c1ccc(C(=O)NCc2ccc(C(F)(F)F)cn2)c(NCCc2cccc(F)c2)n1 [(6-(2-cyanophenyl)-2-{[2-(3-fluorophenyl)ethyl]amino}(3-pyridyl))-N-{[5-(trifluoromethyl)(2-pyridyl)]methyl}carboxamide]

Continued, compound first:

Compound	IC50
CC(C)(C)OC(=O)NCCCC(=O)N1CCC[C@@H]1CNC(=O)c1ccc(-c2ccccc2C#N)nc1NCCc1cccc(F)c1 [N-[((2R)-1-{4-[(tert-butoxy)carbonylamino]butanoyl}pyrrolidin-2-yl)methyl](6-(2-cyanophenyl)-2-{[2-(3-fluorophenyl)ethyl]amino}(3-pyridyl))carboxamide]	0.432 µM
C[C@H](NC(=O)OC(C)(C)C)C(=O)N1CCC[C@@H]1CNC(=O)c1cc(F)c(-c2cnn(C)c2)nc1NCCc1cccc(F)c1 [N-[2-((2R)-2-{[(5-fluoro-2-{[2-(3-fluorophenyl)ethyl]amino}-6-(1-methylpyrazol-4-yl)(3-pyridyl))carbonylamino]methyl}pyrrolidinyl)(1S)-1-methyl-2-oxoethyl](tert-butoxy)carboxamide]	1.95 µM
Cn1cc(-c2ccc(C(=O)NCc3cccnc3)c(NCCc3cccc(F)c3)n2)cn1	0.04 µM
CNCCNC(=O)CNC(=O)c1ccc(-c2ccccc2C#N)nc1NCCc1cccc(F)c1 [2-[(6-(2-cyanophenyl)-2-{[2-(3-fluorophenyl)ethyl]amino}(3-pyridyl))carbonylamino]-N-[2-(methylamino)ethyl]acetamide]	11.1 µM
CN(CCNC(=O)c1ccc(-c2ccccc2C#N)nc1NCCc1cccc(F)c1)C(=O)OC(C)(C)C [N-{2-[(tert-butoxy)-N-methylcarbonylamino]ethyl}(6-(2-cyanophenyl)-2-{[2-(3-fluorophenyl)ethyl]amino}(3-pyridyl))carboxamide]	42.2 µM
Cn1cc(-c2nc(NCCc3cccc(F)c3)c(C(=O)NC[C@H]3CCN3C(=O)CNC(=O)OC(C)(C)C)cc2F)cn1 [N-[((2R)-1-{2-[(tert-butoxy)carbonylamino]acetyl}azetidin-2-yl)methyl](5-fluoro-2-{[2-(3-fluorophenyl)ethyl]amino}-6-(1-methylpyrazol-4-yl)(3-pyridyl))carboxamide]	0.436 µM
